What was measured:
[1] = system: human recombinant DGL; set-up: method as in Bisogno et al., 2006; conditions: ref Bisogno et al., 2006, read-out: IC50 reported for human recombinant DGL; cited from earlier work
[2] = system: DGL; assay: DGL activity assay, UPLC-MS/MS, lung protein isolates; format: biochemical, mouse; conditions: for DAG metabolism (normalized response): lung protein 50 μg
Experimental: Homogenized samples were centrifuged at 800 × g for 15 m at 4°C. The supernatant was collected in a 2.0 mL centrifuge tube and sonicated twice for 10 s. Samples underwent two sequential freeze thaw cycles using liquid N2. Samples were again centrifuged at 800 × g, 15 min, 4°C and the supernatant was collected. Total protein was then quantified via BCA assay and normalized between all samples. Protein isolations for each assay and each tissue were performed separately.
Substrate solutions were prepared by drying stock 19:2 DAG (20 nmol/reaction) under N2 steam (99.998% pure) and reconstituted in a solution of 50 mM Tris–HCl with 0.2% Triton x-100 (pH = 7.0). This solution was bath sonicated for 60 min at room temperature while protein samples were prepared. […] In addition, the ABHD6 inhibitor, WWL 70 (10 μM), was added to lung protein isolates for the 10-minute room temperature incubation to ensure the product of interest was not metabolized ([Tchantchou and Zhang, 2013]). Dose-inhibition experiments included addition of the DGL inhibitor, THL [albeit not selective for DGL, see [Hoover et al. (2008)]; [DiPatrizio et al. (2015)]]. […] The products of the reaction were extracted via lipid extraction methods (see section “Lipid Extraction for Enzyme Assays”) and quantified via UPLC-MS/MS (see section “Quantitation of MAG Biosynthetic Enzyme Activity Assay Products”).
Lipids were extracted using liquid-liquid extraction with chloroform (2.0 mL) followed by 0.8 mL 0.2-micron ultra-purified water. […] Products were detected and quantified via UPLC-MS/MS techniques (see section “UPLC-MS/MS Detection of Analytes”).
Analytes were eluted at a flow rate of 0.4 mL/min and gradient: 80% methanol 0.0–0.5 min, 80–100% methanol 0.5–2.5 min, 100% methanol 2.5–3.0 min, 100–80% methanol 3.0–3.1 min, and 80% methanol 3.1–4.5 min. […] Lipids were quantified using a stable isotope serial dilution method detecting H^+ or Na^+ adducts of the molecular ions [M + H/Na]^+ in multiple reactions monitoring (MRM) mode (variable amounts of product 19:2 MAG versus fixed amount of internal standard [^2H5]-2-AG). […]

IC50 ([2]; mouse lung protein isolates 50 μg, THL 3-1,000 nM, read-out: IC50, inhibition of DAG metabolism (DGL activity)): 74.6 nM
SMILES: CCCCCCCCCCC[C@@H](C[C@@H]1OC(=O)[C@H]1CCCCCC)OC(=O)[C@H](CC(C)C)NC=O [THL, tetrahydrolipstatin]
IC50 [1]: 60 nM | DAG metabolism (normalized response) ([2]; highest inhibitor concentration of range (1,000 nM)): 10.19 ± 0.29% | DAG metabolism (normalized response) ([2]; lowest inhibitor concentration of range (3 nM)): 90.26 ± 9.07%
